In data set [1] the target is T1, Human Prostanoid EP4 Receptor (Homo sapiens, UniProt P35408).
T1 construct: expressed in transfected cells; host or cells: HEK-293 cells (membrane homogenates)
In words: Radioligand binding assay, agonist site of human prostanoid EP4 receptor in transfected HEK-293 cells. Particulars: for hEP4 receptor binding, % @100: @100, printed in the IC50 (nM) column. The protocol:
Radioligand Binding Assay for the Evaluation of the Affinity of Compounds for the Agonist Site of the Human Prostanoid EP4 Receptor in Transfected HEK-293 Cells
Following incubation, the samples are filtered rapidly under vacuum through glass fiber filters (GF/B, Packard) presoaked with 0.3% PEI and rinsed several times with ice-cold 50 mM Tris-HCl using a 96-sample cell harvester (Unifilter, Packard). The filters are dried then counted for radioactivity in a scintillation counter (Topcount, Packard) using a scintillation cocktail (Microscint 0, Packard).

A further data set deals with rat calvarial defect. In words: Rat calvarial defect model, drug in calcium phosphate cement suspended in demineralized bone matrix putty. It is filed as in vivo, female Sprague Dawley rats. Particulars: 2.6 mm defect; 3 μg/ml to 3 mg/ml in cement-DBM putty 1:8; eight weeks; FIG. 1. The protocol:
The rat calvarial defect model is a widely used model through which the ability of a treatment agent to induce bone formation is assessed (Aghaloo et al., The effect of NELL1 and bone morphogenetic protein-2 on calvarial bone regeneration, J. Oral Maxillofac. Surg. 2010: 68:300-308; Mark et al., Repair of calvarial nonunions by osteogenin, a bone-inductive protein, Plast. Reconstr. Surg. 1990: 86:623-30).
Bone defects are created by removal of bone from the cranium of female Sprague Dawley rats by a bone trephine (cranial defect). Cranial defects are 2.6 mm in diameter and the cranium approximately 1 mm thick. A matrix of approximately 2 mm thickness is applied to the defect. Thus the dosing volume for each defect is calculated as π*r^2*matrix thickness=3.14*1.3^2*2=10.61 μl and rounded to 11 μl for purposes of dose calculation.
EXAMPLE 2C is tested at seven doses with five rats in each group. These are 3, 10, 30, 100 and 300 μg/ml and 1 and 3 mg/ml. A negative control group treated with dosing matrix containing no drug (Vehicle) as well as a positive control group treated with 50 μg/ml recombinant human bone morphogenetic protein 2 (BMP-2) are also included in the study. […]
The area measured each week is compared to that of the first week and the degree of repair calculated by the following formula: (original area−current area)/original area*100 […]

The test system of the next data set is osteoporotic femur. In words: Bone density of osteoporotic femur after osteotomy with drug-cement insert in ovariectomized rats. It is filed as in vivo, Female Sprague Dawley rats. Particulars: 100 μg/gm or 300 μg/gm cement insert; twenty weeks; FIG. 6. The protocol: Dosing solutions are made from a 5 mg/ml Example 2E' stock which is made by dissolving 2.08 mg of neat Example 2E' in 416 μl of 100% ethanol. The dosing solution for Example 2E' was made by adding 44.4 μL of the 5 mg/ml stock to 22.2 mg of calcium phosphate cement powder. The Vehicle dosing solution was made by adding 50.4 μl of ethanol containing no Example 2E' to 25.2 mg of calcium phosphate cement powder. After the ethanol has been vented off, the cement is wetted with a setting solution and mixed thoroughly for 1 minute as the cement begins to set. The cement is separated into five aliquots and placed on a glass microscope slide. […] After obtaining the CT image the cross sectional density of the bone 3 mm dorsal to the implant site is measured in three places and the measurements averaged. The density of the phantom is measured at the same time and is compared to the phantom measurement on week 0. […] For example the density of the femur of a vehicle treated rat imaged on week 0 is measured at 3028, 3597 and 3329 units (average=3318) and the phantom measured 4209 units. […] The relative density on bone at week 3 compared to week 0 is then calculated as: average week 3normalized/average week 0*100=3378/3318*100=101.8% The mean change in bone density of both groups after three weeks of treatment is shown in FIG. 5. […]

Consider six molecules from patent US10729810B2, “Methods, systems, and compositions for promoting bone growth” (Cayman Chemical Company, Inc., priority 2013, dated 2020).

T1 sequence (P35408 whole entry): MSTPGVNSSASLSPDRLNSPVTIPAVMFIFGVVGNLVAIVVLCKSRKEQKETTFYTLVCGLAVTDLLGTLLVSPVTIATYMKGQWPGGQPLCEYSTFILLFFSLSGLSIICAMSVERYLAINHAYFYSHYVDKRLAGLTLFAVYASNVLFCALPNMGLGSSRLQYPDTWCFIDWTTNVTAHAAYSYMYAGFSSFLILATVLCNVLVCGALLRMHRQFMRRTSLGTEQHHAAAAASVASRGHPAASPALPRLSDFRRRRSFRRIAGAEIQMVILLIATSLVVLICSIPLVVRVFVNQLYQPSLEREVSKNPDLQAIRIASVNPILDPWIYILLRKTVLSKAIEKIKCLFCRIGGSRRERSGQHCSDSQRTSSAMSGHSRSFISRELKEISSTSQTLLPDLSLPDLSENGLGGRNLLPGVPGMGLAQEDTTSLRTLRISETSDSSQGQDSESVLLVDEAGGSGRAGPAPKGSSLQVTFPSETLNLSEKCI

The melting point is the temperature, or range, at which the solid turns liquid. As for `CCCC#CCC(C)[C@H](O)/C=C/[C@H]1CCC(=O)N1CCCCCCC(=O)O` (mixture of isomers) [3C′, 7-((2R)-2-((3S,4R/S,E)-3-hydroxy-4-methyldec-1-en-6-yn-1-yl)-5-oxopyrrolidin-1-yl)heptanoic acid], the melting point lay in the range of 104 to 105 °C.

With `CC#CCC(C)[C@H](O)/C=C/[C@H]1CCC(=O)N1CCCCCCC(=O)O` (mixture of isomers) [Example 1C′, 7-((2R)-2-((3S,4R/S,E)-3-hydroxy-4-methyloct-1-en-6-yn-1-yl)-5-oxopyrrolidin-1-yl)heptanoic acid], the “hEP4 receptor binding, % @100” value in data set [1] came to 86% @100. Still for that read-out and setting: the value for `CC#CCC(C)[C@@H](O)/C=C/[C@H]1CCC(=O)N1CCCCCCC(=O)O` (mixture of isomers) [Example 1D′, 7-((2R)-2-((3R,4R/S,E)-3-hydroxy-4-methyloct-1-en-6-yn-1-yl)-5-oxopyrrolidin-1-yl)heptanoic acid] was 11% @100. On to `CCC#CC[C@H](C)[C@H](O)/C=C/[C@H]1CC(F)(F)C(=O)N1CCCCCCC(=O)O` [Example 2C, 7-((R)-3,3-difluoro-5-((3S,4S,E)-3-hydroxy-4-methylnon-1-en-6-yn-1-yl)-2-oxopyrrolidin-1-yl)heptanoic acid], for which, in the data set on rat calvarial defect, the “Healing of a calvarial bone defect” value is given as “Accelerated Healing”. As a reminder, the IC50 is the concentration at which inhibition is half-maximal. As usually defined, the Ki is a measure of affinity in units of concentration, obtained from inhibition or displacement. On to `C[C@@H](CCCc1ccccc1)[C@H](O)/C=C/[C@H]1CC(F)(F)C(=O)N1CCCCCCC(=O)O` [Example 6D, 7-((R)-3,3-difluoro-5-((3S,4S,E)-3-hydroxy-4-methyl-7-phenylhept-1-en-1-yl)-2-oxopyrrolidin-1-yl)heptanoic acid], for which, in data set [1] (0.5 nM [3H]PGE2, HEK-293 cell membrane homogenates, read-out: hEP4 receptor binding (nM) IC50), the IC50 stood at 2.4 nM. Also, in data set [1] (0.5 nM [3H]PGE2, HEK-293 cell membrane homogenates, read-out: hEP4 receptor binding (nM) Ki), the Ki stood at 0.89 nM. As to `C[C@@H](CCCc1ccccc1)[C@H](O)/C=C/[C@H]1CC(F)(F)C(=O)N1CCCc1ccc(C(=O)O)s1` [Example 28C, 5-(3-((R)-3,3-difluoro-5-((3S,4S,E)-3-hydroxy-4-methyl-7-phenylhept-1-en-1-yl)-2-oxopyrrolidin-1-yl)propyl)thiophene-2-carboxylic acid], in the data set on osteoporotic femur, the “Bone density of osteoporotic femur” value was “Increased Bone Density”.
